Key:
BT474 = experiment: qPCR analysis of mRNA levels of genes associated with oncogenic progression, BT474; assay type: cell-based, human; settings: BT474, 10 μM
Description: (§1) Total RNA was isolated from cells using TRIzol Plus RNA Purification system as previously described in Pandey V et al., Endocrinology. 2010; 151(3):909-920. qPCR assays were performed as previously described in Pandey V et al., Endocrinology. 2010; 151(3):909-920; and Pandey V et al., Endocrinology. 2008; 149(8):3909-3919. Gene expression analysis was performed as previously described in Pandey V et al., Endocrinology. 2010; 151(3):909-920; and Pandey V et al., Endocrinology. 2008; 149(8):3909-3919.

LNCaP = experiment: AlamarBlue cell viability assay, LNCaP; assay type: cell-based; settings: Homo sapiens, Prostate
Description: (§2) The human immortalized mammary epithelial cell lines, MCF10A, and MCF12A; and immortalized hepatocellular epithelial cell line, LO2 were obtained from the American Type Culture Collection (ATCC, Rockville, Md.) and were cultured as per ATCC propagation instructions. MC cell lines, MCF7, T47D, BT474, BT20, MDA-MB-361, MDA-MB-436, MDA-MB-468, and MDA-MB-231; endometrial carcinoma cell lines, Ishikawa, ECC1, RL95-2 and AN3; hepatocellular carcinoma cell lines, Hep3B, H2P, and H2M; colon carcinoma cell lines, DLD-1, and Caco-2; and prostate carcinoma cell lines, PC3, LNCaP, and DU145 were obtained from the American Type Culture Collection (ATCC, Rockville, Md.). Pancreatic carcinoma cell lines, AsPC-1 and BxPC-3; Lung carcinoma cell lines, HCC-827, NCI-H1975, HCC-4006, PC-14, and NCI-H1299; and Thyroid carcinoma cell lines HTH83, CAL62, T238, and OGK-M were obtained from Prof. H. Phillip Koeffler's laboratory at The Cancer Science Institute of Singapore, National University of Singapore (NUS). Gastric carcinoma cell lines, AGS, MKN-28, MKN-45, and A2-528 were obtained from Prof. […]
(§3) In table 9 IC50 values of compound 43 compound library in several cancer cell lines are tabulated, using an AlamarBlue® cell viability assay as previously described in Pandey V et al., Breast Cancer Res. 2014; 16(5):429. Statistical analysis was assessed by using GraphPad Prism5. […]

T47D = experiment: AlamarBlue cell viability assay, T47D; assay type: cell-based; settings: Homo sapiens, Mammary
From the text: (A) Inhibitory concentration 50% (IC50) values for compound 43 in the MC cell lines are tabulated, using an AlamarBlue™ cell viability assay as previously described in Pandey V et al., Breast Cancer Res. 2014; 16(5):429. (B) Measured dose-dependent manner effect of compound 43 on the viability of MC cells (left-side, TFF3-high and right, TFF3-low) using AlamarBlue™ viability assay as previously described (ibid). (C) Apoptotic cell death of mammary carcinoma cell lines measured after treatment with 10 μM compound 43 using flow cytometry analysis at 24 hour as described previously in Keerthy H K et al., PloS one. 2014; 9(9):e107118. Annexin V-FITC staining is indicated on the X-axis and PI staining on the Y-axis. […] Acquisition of Annexin V and PI data were represented as percentage (%) in each quadrant. Note: CM, conditioned media; MCF10A and MCF12A, non-transformed immortalized-mammary epithelial cell line. Points are mean of triplicate experiments; bars, ±SD. Statistical significance was assessed by using an unpaired two-tailed Student's t test (P<0.05 was considered as significant) using GraphPad Prism5. […]
as §3

PC-14 = experiment: AlamarBlue cell viability assay, PC-14; assay type: cell-based; settings: Homo sapiens, Lung
Description: as §2, §3

MCF7 = experiment: qPCR analysis of mRNA levels of genes associated with oncogenic progression, MCF7; assay type: cell-based, human; settings: MCF7, 10 μM
Description: as §1

Ishikawa = experiment: AlamarBlue cell viability assay, Ishikawa; assay type: cell-based; settings: Homo sapiens, Endometrial
Description: as §2, §3

AGS = experiment: AlamarBlue cell viability assay, AGS; assay type: cell-based; settings: Homo sapiens, Gastric
Description: as §2, §3

AN3 = experiment: AlamarBlue cell viability assay, AN3; assay type: cell-based; settings: Homo sapiens, Endometrial
Description: as §2, §3

CAL62 = experiment: AlamarBlue cell viability assay, CAL62; assay type: cell-based; settings: Homo sapiens, CAL-62, Thyroid
Description: as §2, §3

HCC827 = experiment: AlamarBlue cell viability assay, HCC827; assay type: cell-based; settings: Homo sapiens, Lung
Description: as §2, §3

## Cc1cc(-c2ccc(C3C(C#N)=C(N)Oc4c3c(=O)oc3ccccc43)cc2)cnc1F (stereo not shown) [Compound 43, 2-Amino-4-(4-(6-fluoro-5-methylpyridin-3-yl)phenyl)-5-oxo-4H,5H-pyrano[3,2-c]chromene-3-carbonitrile]
BT474
  APAF1 mRNA, Fold change relative to vehicle control: 1.27 fold
  ATM mRNA, Fold change relative to vehicle control: 0.80 fold
  BAD mRNA, Fold change relative to vehicle control: 0.04 fold
  BAK1 mRNA, Fold change relative to vehicle control: 1.92 fold
  BAX mRNA, Fold change relative to vehicle control: 21.55 fold
  BCL2L1 mRNA, Fold change relative to vehicle control: 0.05 fold
  BCL2 mRNA, Fold change relative to vehicle control: 0.02 fold
  BCLAF1 mRNA, Fold change relative to vehicle control: 1.26 fold
  BRCA1 mRNA, Fold change relative to vehicle control: 0.47 fold
  CASP7 mRNA, Fold change relative to vehicle control: 103.76 fold
  CCND1 mRNA, Fold change relative to vehicle control: 0.04 fold
  CDC25A mRNA, Fold change relative to vehicle control: 0.15 fold
  CDK2 mRNA, Fold change relative to vehicle control: 1.05 fold
  CDK4 mRNA, Fold change relative to vehicle control: 0.66 fold
  CDKN1A mRNA, Fold change relative to vehicle control: 27.15 fold
  CDKN1B mRNA, Fold change relative to vehicle control: 0.14 fold
  CDKN2A mRNA, Fold change relative to vehicle control: 1.43 fold
  CFLAR mRNA, Fold change relative to vehicle control: 9.08 fold
  CHEK2 mRNA, Fold change relative to vehicle control: 0.85 fold
  Cyclin E1 mRNA, Fold change relative to vehicle control: 0.08 fold
  E2F1 mRNA, Fold change relative to vehicle control: 0.51 fold
  GZMA mRNA, Fold change relative to vehicle control: 3.66 fold
  HTATIP2 mRNA, Fold change relative to vehicle control: 6.64 fold
  MDM2 mRNA, Fold change relative to vehicle control: 0.99 fold
  RB1 mRNA, Fold change relative to vehicle control: 0.86 fold
  S100A4 mRNA, Fold change relative to vehicle control: 4.80 fold
  TERT mRNA, Fold change relative to vehicle control: 0.08 fold
  TNFRSF1A mRNA, Fold change relative to vehicle control: 35.64 fold
  TNFRSF10B mRNA, Fold change relative to vehicle control: 9.22 fold
  TNFRSF25 mRNA, Fold change relative to vehicle control: 7.11 fold
  TP53 mRNA, Fold change relative to vehicle control: 459.09 fold
LNCaP
  IC50: 226 µM
T47D
  IC50: 5.24 µM
PC-14
  IC50: 24.2 µM
MCF7
  APAF1 mRNA, Fold change relative to vehicle control: 0.94 fold
  ATM mRNA, Fold change relative to vehicle control: 0.32 fold
  BAD mRNA, Fold change relative to vehicle control: 0.09 fold
  BAK1 mRNA, Fold change relative to vehicle control: 2.09 fold
  BAX mRNA, Fold change relative to vehicle control: 18.54 fold
  BCL2L1 mRNA, Fold change relative to vehicle control: 0.04 fold
  BCL2 mRNA, Fold change relative to vehicle control: 0.06 fold
  BCLAF1 mRNA, Fold change relative to vehicle control: 0.87 fold
  BRCA1 mRNA, Fold change relative to vehicle control: 2.00 fold
  CASP7 mRNA, Fold change relative to vehicle control: 30.71 fold
  CCND1 mRNA, Fold change relative to vehicle control: 0.01 fold
  CDC25A mRNA, Fold change relative to vehicle control: 0.49 fold
  CDK2 mRNA, Fold change relative to vehicle control: 0.15 fold
  CDK4 mRNA, Fold change relative to vehicle control: 0.18 fold
  CDKN1A mRNA, Fold change relative to vehicle control: 114.92 fold
  CDKN1B mRNA, Fold change relative to vehicle control: 11.08 fold
  CDKN2A mRNA, Fold change relative to vehicle control: 5.45 fold
  CFLAR mRNA, Fold change relative to vehicle control: 0.02 fold
  CHEK2 mRNA, Fold change relative to vehicle control: 1.14 fold
  Cyclin E1 mRNA, Fold change relative to vehicle control: 0.01 fold
  E2F1 mRNA, Fold change relative to vehicle control: 1.80 fold
  GZMA mRNA, Fold change relative to vehicle control: 0.93 fold
  HTATIP2 mRNA, Fold change relative to vehicle control: 2.87 fold
  MDM2 mRNA, Fold change relative to vehicle control: 6.62 fold
  RB1 mRNA, Fold change relative to vehicle control: 1.00 fold
  S100A4 mRNA, Fold change relative to vehicle control: 1.49 fold
  TERT mRNA, Fold change relative to vehicle control: 0.11 fold
  TNFRSF1A mRNA, Fold change relative to vehicle control: 1.15 fold
  TNFRSF10B mRNA, Fold change relative to vehicle control: 1.05 fold
  TNFRSF25 mRNA, Fold change relative to vehicle control: 1.41 fold
  TP53 mRNA, Fold change relative to vehicle control: 282.98 fold
Ishikawa
  IC50: 0.94 µM
AGS
  IC50: 3.08 µM
AN3
  IC50: 289 µM
CAL62
  IC50: 33.1 µM
HCC827
  IC50: 0.93 µM

From US20200147039A1, “COMPOUNDS USEFUL IN INHIBITING HUMAN TREFOIL FACTOR 3” (NATIONAL UNIVERSITY OF SINGAPORE, priority 2017, published 2020)
